The nature of data set [1]: Sulforhodamine B (SRB) assay. It is filed as cell-based. Particulars: human, 293 cells (renal), 293, Renal, read-out: GI50 (SRB in vitro cytotoxicity). How it is done: (§1) Growth inhibitory effect of Compound A on the cells listed below was measured by the sulforhodamine B assay. SW480 cells in 100 μl media were plated in each well of 96-well plate and allowed to attach for 24 hours. Compound A was added to the wells to produce the desired final concentrations, and the plates were incubated at 37° C. for 48 hours. The cells were then fixed by gentle addition of 100 μl of cold (4° C.) 10% trichloroacetic acid to each well, followed by incubation at 4° C. for 1 hour. Plates were washed with deionized water five times and allowed to air dry. The cells were then stained by addition of 100 μl SRB solution (0.4% SRB(w/v) in 1% acetic acid (v/v)) to wells for 15 min. After staining, the plates were quickly washed five times with 1% acetic acid to remove any unbound dye, and allowed to air dry. Bound dye was solubilized with 10 mmol/L Tris base (pH 10.5) prior to reading the plates. The optical density (OD) was read on a plate reader at a wavelength of 515 nm with Molecular Device. Inhibition of growth was expressed as relative viability (% of control) and GI50 was calculated from concentration-response curves after log/probit transformation.

For the next data set, the system named is 786-0. Description: Sulforhodamine B (SRB) assay. Conditions: Homo sapiens; 786-0, listed under Colon; 48 hours; read-out: GI50 (SRB in vitro cytotoxicity). It is filed as cell-based. How it is done:
as §1
(In general: Sulforhodamine B stains cellular protein and so reports cell mass.)

The next data set deals with A375. Description: Sulforhodamine B (SRB) assay. In kind it is cell-based. Particulars: Homo sapiens, A-375; A375, Melanoma; 48 hours; read-out: GI50 (SRB in vitro cytotoxicity). How it is done: as §1
The subject of a further data set is A431. Description: Sulforhodamine B (SRB) assay. It is filed as cell-based. Particulars: Homo sapiens, A-431; A431, Melanoma; 48 hours; read-out: GI50 (SRB in vitro cytotoxicity). On the procedure: as §1
For the next data set, the system named is CACO-2. Description: Sulforhodamine B (SRB) assay. It is filed as cell-based. Conditions: Homo sapiens; CACO-2, Colon; 48 hours; read-out: GI50 (SRB in vitro cytotoxicity). How it is done: as §1
The test system of another data set is CAKI-1. Description: Sulforhodamine B (SRB) assay. It is filed as cell-based. Particulars: Homo sapiens; CAKI-1, Renal; 48 hours; read-out: GI50 (SRB in vitro cytotoxicity). On the procedure:
as §1

The next data set deals with COLO205. Description: Sulforhodamine B (SRB) assay. It is filed as cell-based. Conditions: Homo sapiens, COLO 205; COLO205, Colon; 48 hours; read-out: GI50 (SRB in vitro cytotoxicity). On the procedure: as §1
Another data set concerns G361. Description: Sulforhodamine B (SRB) assay. Conditions: Homo sapiens, G-361; G361, Melanoma; 48 hours; read-out: GI50 (SRB in vitro cytotoxicity). It is filed as cell-based. On the procedure:
as §1

The next data set has as its system HL60. Description: Sulforhodamine B (SRB) assay. It is filed as cell-based. Particulars: Homo sapiens, HL-60; HL60, Leukemia; 48 hours; read-out: GI50 (SRB in vitro cytotoxicity). How it is done: as §1
The next data set concerns HMV-I. Description: Sulforhodamine B (SRB) assay. In kind it is cell-based. Conditions: Melanoma, 48 hours, read-out: GI50 (SRB in vitro cytotoxicity). How it is done: as §1
The subject of a further data set is HT1080. Description: Sulforhodamine B (SRB) assay. It is filed as cell-based. Particulars: Homo sapiens, HT-1080; HT1080, listed under Prostate; 48 hours; read-out: GI50 (SRB in vitro cytotoxicity). On the procedure:
as §1

A further data set relates to K562/ADR. Description: Sulforhodamine B (SRB) assay. In kind it is cell-based. Particulars: Homo sapiens, Leukemia, 48 hours, read-out: GI50 (SRB in vitro cytotoxicity). How it is done: as §1
For another data set, the system named is KM12. Description: Sulforhodamine B (SRB) assay. In kind it is cell-based. Particulars: Homo sapiens; KM12, Colon; 48 hours; read-out: GI50 (SRB in vitro cytotoxicity). On the procedure:
as §1

Another data set relates to LOVO. Description: Sulforhodamine B (SRB) assay. It is filed as cell-based. Conditions: Homo sapiens, Colon, 48 hours, read-out: GI50 (SRB in vitro cytotoxicity). On the procedure:
as §1

A further data set has as its system LOX-IMVI. Description: Sulforhodamine B (SRB) assay. Conditions: Homo sapiens, Melanoma, 48 hours, read-out: GI50 (SRB in vitro cytotoxicity). It is filed as cell-based. On the procedure:
as §1

Another data set relates to M14. Description: Sulforhodamine B (SRB) assay. Conditions: Homo sapiens; M14, Melanoma; 48 hours; read-out: GI50 (SRB in vitro cytotoxicity). In kind it is cell-based. On the procedure: as §1
The next data set has as its system NCI H23. Description: Sulforhodamine B (SRB) assay. In kind it is cell-based. Conditions: Homo sapiens; NCI H23, Lung; 48 hours; read-out: GI50 (SRB in vitro cytotoxicity). On the procedure:
as §1

The subject of the next data set is PC3. Description: Sulforhodamine B (SRB) assay. Conditions: Homo sapiens, PC-3; PC3, Prostate; 48 hours; read-out: GI50 (SRB in vitro cytotoxicity). It is filed as cell-based. On the procedure: as §1
A further data set relates to RPMI8226. Description: Sulforhodamine B (SRB) assay. In kind it is cell-based. Particulars: Homo sapiens, RPMI-8226; RPMI8226, Leukemia; 48 hours; read-out: GI50 (SRB in vitro cytotoxicity). On the procedure:
as §1

In another data set the test system is SK-MEL-28. Description: Sulforhodamine B (SRB) assay. In kind it is cell-based. Particulars: Homo sapiens; SK-MEL-28, Melanoma; 48 hours; read-out: GI50 (SRB in vitro cytotoxicity). On the procedure: as §1
A further data set deals with SK-MEL-5. Description: Sulforhodamine B (SRB) assay. In kind it is cell-based. Particulars: Homo sapiens; SK-MEL-5, Melanoma; 48 hours; read-out: GI50 (SRB in vitro cytotoxicity). On the procedure: as §1
Another data set deals with SW480-CWP. Description: Sulforhodamine B (SRB) assay. Particulars: Colon, 48 hours, read-out: GI50 (SRB in vitro cytotoxicity). It is filed as cell-based. How it is done:
as §1

In the next data set the test system is SW480-Kribb. Description: Sulforhodamine B (SRB) assay. It is filed as cell-based. Conditions: Colon, 48 hours, read-out: GI50 (SRB in vitro cytotoxicity). How it is done: as §1
Another data set has as its system T84. Description: Sulforhodamine B (SRB) assay. It is filed as cell-based. Particulars: Homo sapiens; T84, Colon; 48 hours; read-out: GI50 (SRB in vitro cytotoxicity). How it is done:
as §1

A further data set has as its system UACC62. Description: Sulforhodamine B (SRB) assay. In kind it is cell-based. Particulars: Homo sapiens, UACC-62; UACC62, Melanoma; 48 hours; read-out: GI50 (SRB in vitro cytotoxicity). On the procedure: as §1
The subject of a further data set is cultured tumor cells. Description: FACS analysis, cells in G0. Particulars: 5 μM. It is filed as cell-based.
Data set [2] addresses β-catenin/CBP interaction (Homo sapiens, UniProt Q92793). Particulars: Emami et al., Cancer Cell, in press; cited from earlier work.

Consider 2 compounds from patent US7671054B1, “Reverse-turn mimetics and method relating thereto” (Choongwae Pharma Corporation, priority 2001, dated 2010).

The structures appear in SMILES notation. Values after ≈ are worked out from the molar mass of the structure shown.

Chain of β-catenin/CBP interaction (Q92793 whole entry): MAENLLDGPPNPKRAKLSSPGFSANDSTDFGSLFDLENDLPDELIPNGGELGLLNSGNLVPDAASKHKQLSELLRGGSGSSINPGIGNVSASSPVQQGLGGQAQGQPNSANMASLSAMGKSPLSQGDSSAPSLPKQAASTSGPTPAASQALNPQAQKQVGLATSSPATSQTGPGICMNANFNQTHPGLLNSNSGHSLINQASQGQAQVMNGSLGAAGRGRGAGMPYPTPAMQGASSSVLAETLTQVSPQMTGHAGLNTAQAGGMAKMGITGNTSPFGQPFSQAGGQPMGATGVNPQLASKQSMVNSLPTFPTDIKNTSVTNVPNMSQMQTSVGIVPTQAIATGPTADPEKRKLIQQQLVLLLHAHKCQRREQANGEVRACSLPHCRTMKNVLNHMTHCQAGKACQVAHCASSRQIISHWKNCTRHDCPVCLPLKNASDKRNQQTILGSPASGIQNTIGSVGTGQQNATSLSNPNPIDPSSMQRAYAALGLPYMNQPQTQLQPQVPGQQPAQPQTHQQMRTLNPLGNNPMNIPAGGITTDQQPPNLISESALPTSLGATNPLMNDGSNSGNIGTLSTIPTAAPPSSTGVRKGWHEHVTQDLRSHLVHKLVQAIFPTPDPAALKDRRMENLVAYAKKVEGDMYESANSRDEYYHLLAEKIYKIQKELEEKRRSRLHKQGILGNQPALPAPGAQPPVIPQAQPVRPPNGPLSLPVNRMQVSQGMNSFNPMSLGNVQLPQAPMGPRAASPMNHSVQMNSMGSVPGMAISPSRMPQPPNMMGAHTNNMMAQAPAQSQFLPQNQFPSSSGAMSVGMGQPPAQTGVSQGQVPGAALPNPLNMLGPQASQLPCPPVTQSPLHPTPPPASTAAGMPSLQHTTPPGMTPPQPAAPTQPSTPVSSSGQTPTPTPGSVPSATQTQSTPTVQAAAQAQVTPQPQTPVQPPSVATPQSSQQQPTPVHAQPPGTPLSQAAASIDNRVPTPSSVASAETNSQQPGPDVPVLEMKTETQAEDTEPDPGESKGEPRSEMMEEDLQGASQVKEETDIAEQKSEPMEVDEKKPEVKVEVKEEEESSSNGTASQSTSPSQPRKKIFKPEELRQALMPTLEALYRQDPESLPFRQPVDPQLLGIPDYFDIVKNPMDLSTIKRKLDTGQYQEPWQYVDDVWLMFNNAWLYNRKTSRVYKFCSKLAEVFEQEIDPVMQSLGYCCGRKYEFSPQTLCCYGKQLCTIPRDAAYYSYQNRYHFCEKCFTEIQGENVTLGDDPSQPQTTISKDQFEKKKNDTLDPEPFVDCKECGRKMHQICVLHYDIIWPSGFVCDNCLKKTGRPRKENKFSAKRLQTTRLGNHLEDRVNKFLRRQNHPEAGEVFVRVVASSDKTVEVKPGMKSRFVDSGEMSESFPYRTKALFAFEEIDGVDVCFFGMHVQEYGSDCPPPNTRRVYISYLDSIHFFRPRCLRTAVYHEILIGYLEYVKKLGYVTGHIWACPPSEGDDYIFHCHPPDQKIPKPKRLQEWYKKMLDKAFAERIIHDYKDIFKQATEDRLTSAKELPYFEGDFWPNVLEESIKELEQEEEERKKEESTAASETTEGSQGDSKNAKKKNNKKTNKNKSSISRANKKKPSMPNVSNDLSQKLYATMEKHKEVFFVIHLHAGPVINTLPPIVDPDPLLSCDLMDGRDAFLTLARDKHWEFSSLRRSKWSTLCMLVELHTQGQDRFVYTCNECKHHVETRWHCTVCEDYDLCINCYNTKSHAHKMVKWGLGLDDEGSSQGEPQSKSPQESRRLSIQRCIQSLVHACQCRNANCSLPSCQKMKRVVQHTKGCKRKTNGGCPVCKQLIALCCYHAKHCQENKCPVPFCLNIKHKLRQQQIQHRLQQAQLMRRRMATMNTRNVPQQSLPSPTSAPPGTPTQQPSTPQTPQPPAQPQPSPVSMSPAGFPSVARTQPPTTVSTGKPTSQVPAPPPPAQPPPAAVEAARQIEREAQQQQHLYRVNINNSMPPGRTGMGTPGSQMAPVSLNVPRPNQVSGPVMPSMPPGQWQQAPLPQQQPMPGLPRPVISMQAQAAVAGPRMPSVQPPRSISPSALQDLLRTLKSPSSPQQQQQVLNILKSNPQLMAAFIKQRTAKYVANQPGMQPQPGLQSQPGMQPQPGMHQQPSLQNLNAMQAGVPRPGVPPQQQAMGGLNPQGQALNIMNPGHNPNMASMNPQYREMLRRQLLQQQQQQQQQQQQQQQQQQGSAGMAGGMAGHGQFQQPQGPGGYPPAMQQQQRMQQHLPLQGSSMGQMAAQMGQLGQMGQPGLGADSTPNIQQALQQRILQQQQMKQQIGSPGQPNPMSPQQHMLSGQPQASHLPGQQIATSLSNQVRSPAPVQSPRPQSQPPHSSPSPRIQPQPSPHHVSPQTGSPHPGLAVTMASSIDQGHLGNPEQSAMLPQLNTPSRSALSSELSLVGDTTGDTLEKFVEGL

As a reminder, the GI50 is the concentration at which growth is held to half of that of the control. In the case of `O=c1[nH]cc(F)c(=O)[nH]1` [Compound 5-FU, 5-fluorouracil], the GI50 at 48 h in [1] turned out to be 2.02 µg/mL (≈ 15.5 µM). Further, the GI50 amounted to 0.584 µg/mL (≈ 4.49 µM) in the data set on 786-0; 1.46 µg/mL (≈ 11.3 µM) in the data set on A375; 0.404 µg/mL (≈ 3.11 µM) in the data set with A431; 0.451 µg/mL (≈ 3.47 µM) in the data set with CACO-2; 0.925 µg/mL (≈ 7.11 µM) in the data set on CAKI-1; 1.13 µg/mL (≈ 8.69 µM) with COLO205. Moreover, the GI50 in the data set with G361 was 1.54 µg/mL (≈ 11.8 µM); with HL60, 7.01 µg/mL (≈ 53.9 µM); with HMV-I, 2.11 µg/mL (≈ 16.2 µM); with HT1080 it was 0.798 µg/mL (≈ 6.13 µM); in the data set on K562/ADR, over 10 µg/mL; in the data set with KM12, 2.73 µg/mL (≈ 21 µM). The GI50 in the data set with LOVO was 1.03 µg/mL (≈ 7.91 µM); in the data set with LOX-IMVI, over 10 µg/mL; in the data set on M14, 1.23 µg/mL (≈ 9.42 µM); in the data set with NCI H23, 2.25 µg/mL (≈ 17.3 µM); in the data set on PC3, over 10 µg/mL; in the data set with RPMI8226 it was over 10 µg/mL. The GI50 in the data set with SK-MEL-28 is over 10 µg/mL; with SK-MEL-5, 2.43 µg/mL (≈ 18.7 µM); in the data set with SW480-CWP, over 10 µg/mL; with SW480-Kribb it was over 10 µg/mL; with T84, 1.82 µg/mL (≈ 14 µM); with UACC62, 1.09 µg/mL (≈ 8.4 µM).
As to `O=C1[C@H](Cc2ccc(O)cc2)N2C(=O)CCN(C(=O)NCc3ccccc3)[C@H]2CN1Cc1cccc2ccccc12` [Compound D], the “number of cells in G0 (FACS)” value in the data set with cultured tumor cells is on record as “increases the number of cells in G0”. The β-catenin/CBP interaction result in data set [2] is on record as “selectively blocks the β-catenin/CBP interaction”.
